Experimental data taken from the supplement of paper PMC6045584.
± gives the standard deviation of the averaged measurements.

Columns and labels:
CANERTINIB = compound: C=CC(=O)Nc1cc2c(Nc3ccc(F)c(Cl)c3)ncnc2cc1OCCCN1CCOCC1 [CANERTINIB]; assay: surviving fraction relative to DMSO-only wells; higher = less growth inhibition; conditions: exposure time: 5 days
In short: (§1)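 Surviving fraction was calculated by normalising CellTiter-Glo luminescence to the median of DMSO-only wells. Tumour cell lines in log phase were seeded in 384-well plates at 250–500 cells per well, and 24 hours later were exposed continuously for five days to inhibitors at 0.5, 1, 5, 10, 50, 100, 500 and 1000 nM.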

[1] = compound: Cn1cc(C2=Nc3cc(NC(=O)C(N)C4CCCCC4)cc4c3C2=CNNC4=O)cn1; assay: as above; conditions: exposure time: 5 days
In short: as §1

CADOES1 SOFT TISSUE gave a surviving fraction (CANERTINIB; 0.5 nM) of 1 ± 0.13, a surviving fraction (CANERTINIB; 1 nM) of 0.945 ± 0.049 and a surviving fraction (CANERTINIB; 5 nM) of 0.945 ± 0.038. The surviving fraction (CANERTINIB; 10 nM) was 0.93 ± 0.075, the surviving fraction (CANERTINIB; 50 nM) was 0.918 ± 0.17 and the surviving fraction (CANERTINIB; 100 nM) was 0.926 ± 0.029. It also gave a surviving fraction (CANERTINIB; 500 nM) of 0.738 ± 0.12, a surviving fraction (CANERTINIB; 1000 nM) of 0.595 ± 0.035 and a surviving fraction ([1]; 0.5 nM) of 0.973 ± 0.13. It also gave a surviving fraction ([1]; 1 nM) of 0.933 ± 0.073, a surviving fraction ([1]; 5 nM) of 0.868 ± 0.011 and a surviving fraction ([1]; 10 nM) of 0.905 ± 0.051. It also gave a surviving fraction ([1]; 50 nM) of 0.88 ± 0.071, a surviving fraction ([1]; 100 nM) of 0.988 ± 0.13 and a surviving fraction ([1]; 500 nM) of 0.798 ± 0.068. It also gave a surviving fraction ([1]; 1000 nM) of 0.558 ± 0.027.

HELA CERVIX showed a surviving fraction (CANERTINIB; 0.5 nM) of 0.9167 ± 0.0022, a surviving fraction (CANERTINIB; 1 nM) of 0.8778 ± 0.0083 and a surviving fraction (CANERTINIB; 5 nM) of 0.888 ± 0.024. The surviving fraction (CANERTINIB; 10 nM) was 0.865 ± 0.023, the surviving fraction (CANERTINIB; 50 nM) was 1.04 ± 0.084 and the surviving fraction (CANERTINIB; 100 nM) was 0.979 ± 0.074. It also gave a surviving fraction (CANERTINIB; 500 nM) of 1.02 ± 0.074, a surviving fraction (CANERTINIB; 1000 nM) of 1 ± 0.039 and a surviving fraction ([1]; 0.5 nM) of 1.1 ± 0.028. The surviving fraction ([1]; 1 nM) was 1.1 ± 0.059, the surviving fraction ([1]; 5 nM) was 1.11 ± 0.045 and the surviving fraction ([1]; 10 nM) was 1.01 ± 0.013. For the same test system, the surviving fraction ([1]; 50 nM) was 1.11 ± 0.082, the surviving fraction ([1]; 100 nM) was 1.15 ± 0.035 and the surviving fraction ([1]; 500 nM) was 1.15 ± 0.038. For the same test system, the surviving fraction ([1]; 1000 nM) was 1.09 ± 0.046.

MFM223 BREAST showed a surviving fraction (CANERTINIB; 0.5 nM) of 0.817 ± 0.075, a surviving fraction (CANERTINIB; 1 nM) of 0.898 ± 0.12 and a surviving fraction (CANERTINIB; 5 nM) of 0.84 ± 0.14. It also gave a surviving fraction (CANERTINIB; 10 nM) of 0.808 ± 0.01, a surviving fraction (CANERTINIB; 50 nM) of 0.958 ± 0.077 and a surviving fraction (CANERTINIB; 100 nM) of 1 ± 0.034. It also gave a surviving fraction (CANERTINIB; 500 nM) of 0.874 ± 0.013, a surviving fraction (CANERTINIB; 1000 nM) of 0.794 ± 0.029 and a surviving fraction ([1]; 0.5 nM) of 1.15 ± 0.029. It also gave a surviving fraction ([1]; 1 nM) of 1.1 ± 0.012, a surviving fraction ([1]; 5 nM) of 1.09 ± 0.11 and a surviving fraction ([1]; 10 nM) of 1.05 ± 0.069. The surviving fraction ([1]; 50 nM) was 0.748 ± 0.047, the surviving fraction ([1]; 100 nM) was 0.408 ± 0.036 and the surviving fraction ([1]; 500 nM) was 0.226 ± 0.018. The surviving fraction ([1]; 1000 nM) was 0.193 ± 0.025.

Work on CHLA90 AUTONOMIC GANGLIA yielded a surviving fraction (CANERTINIB; 0.5 nM) of 0.869 ± 0.021, a surviving fraction (CANERTINIB; 1 nM) of 0.876 ± 0.083 and a surviving fraction (CANERTINIB; 5 nM) of 0.744 ± 0.072. The surviving fraction (CANERTINIB; 10 nM) was 0.704 ± 0.03, the surviving fraction (CANERTINIB; 50 nM) was 0.812 ± 0.08 and the surviving fraction (CANERTINIB; 100 nM) was 0.761 ± 0.057. For the same test system, the surviving fraction (CANERTINIB; 500 nM) was 0.684 ± 0.045, the surviving fraction (CANERTINIB; 1000 nM) was 0.643 ± 0.062 and the surviving fraction ([1]; 0.5 nM) was 1.01 ± 0.025. The surviving fraction ([1]; 1 nM) was 1.07 ± 0.07, the surviving fraction ([1]; 5 nM) was 0.956 ± 0.057 and the surviving fraction ([1]; 10 nM) was 0.992 ± 0.023. The surviving fraction ([1]; 50 nM) was 0.772 ± 0.03, the surviving fraction ([1]; 100 nM) was 0.557 ± 0.04 and the surviving fraction ([1]; 500 nM) was 0.101 ± 0.0068. The surviving fraction ([1]; 1000 nM) was 0.0843 ± 0.011.

143B BONE was tested, and the surviving fraction (CANERTINIB; 0.5 nM) was 1.05 ± 0.044, the surviving fraction (CANERTINIB; 1 nM) was 1.04 ± 0.057 and the surviving fraction (CANERTINIB; 5 nM) was 1.05 ± 0.038. For the same test system, the surviving fraction (CANERTINIB; 10 nM) was 1.06 ± 0.061, the surviving fraction (CANERTINIB; 50 nM) was 1.08 ± 0.047 and the surviving fraction (CANERTINIB; 100 nM) was 1.07 ± 0.039. For the same test system, the surviving fraction (CANERTINIB; 500 nM) was 1.04 ± 0.067, the surviving fraction (CANERTINIB; 1000 nM) was 0.984 ± 0.073 and the surviving fraction ([1]; 0.5 nM) was 0.981 ± 0.052. The surviving fraction ([1]; 1 nM) was 1.01 ± 0.029, the surviving fraction ([1]; 5 nM) was 0.992 ± 0.033 and the surviving fraction ([1]; 10 nM) was 1.0045 ± 0.00071. For the same test system, the surviving fraction ([1]; 50 nM) was 0.96 ± 0.052, the surviving fraction ([1]; 100 nM) was 1 ± 0.035 and the surviving fraction ([1]; 500 nM) was 0.303 ± 0.0042. The surviving fraction ([1]; 1000 nM) was 0.036 ± 0.0014.

Test System SCC90 HEADNECK has a surviving fraction (CANERTINIB; 0.5 nM) of 0.781 ± 0.13, a surviving fraction (CANERTINIB; 1 nM) of 0.793 ± 0.056 and a surviving fraction (CANERTINIB; 5 nM) of 0.787 ± 0.018. For the same test system, the surviving fraction (CANERTINIB; 10 nM) was 0.737 ± 0.064, the surviving fraction (CANERTINIB; 50 nM) was 0.656 ± 0.075 and the surviving fraction (CANERTINIB; 100 nM) was 0.564 ± 0.065. It also gave a surviving fraction (CANERTINIB; 500 nM) of 0.428 ± 0.021, a surviving fraction (CANERTINIB; 1000 nM) of 0.335 ± 0.051 and a surviving fraction ([1]; 0.5 nM) of 0.92 ± 0.099. It also gave a surviving fraction ([1]; 1 nM) of 0.952 ± 0.11, a surviving fraction ([1]; 5 nM) of 0.943 ± 0.12 and a surviving fraction ([1]; 10 nM) of 0.991 ± 0.014. The surviving fraction ([1]; 50 nM) was 0.891 ± 0.057, the surviving fraction ([1]; 100 nM) was 0.702 ± 0.029 and the surviving fraction ([1]; 500 nM) was 0.15 ± 0.0075. It also gave a surviving fraction ([1]; 1000 nM) of 0.068 ± 0.0076.

Work on SG28 HEADNECK yielded a surviving fraction (CANERTINIB; 0.5 nM) of 0.824 ± 0.055, a surviving fraction (CANERTINIB; 1 nM) of 0.803 ± 0.046 and a surviving fraction (CANERTINIB; 5 nM) of 0.627 ± 0.081. For the same test system, the surviving fraction (CANERTINIB; 10 nM) was 0.621 ± 0.089, the surviving fraction (CANERTINIB; 50 nM) was 0.642 ± 0.0092 and the surviving fraction (CANERTINIB; 100 nM) was 0.498 ± 0.059. The surviving fraction (CANERTINIB; 500 nM) was 0.364 ± 0.073, the surviving fraction (CANERTINIB; 1000 nM) was 0.366 ± 0.021 and the surviving fraction ([1]; 0.5 nM) was 0.971 ± 0.052. For the same test system, the surviving fraction ([1]; 1 nM) was 1.04 ± 0.14, the surviving fraction ([1]; 5 nM) was 0.991 ± 0.044 and the surviving fraction ([1]; 10 nM) was 1.01 ± 0.047. It also gave a surviving fraction ([1]; 50 nM) of 0.83 ± 0.029, a surviving fraction ([1]; 100 nM) of 0.661 ± 0.022 and a surviving fraction ([1]; 500 nM) of 0.427 ± 0.012. For the same test system, the surviving fraction ([1]; 1000 nM) was 0.317 ± 0.026.

With SCC003 HEADNECK the surviving fraction (CANERTINIB; 0.5 nM) was 0.691 ± 0.065, the surviving fraction (CANERTINIB; 1 nM) was 0.867 ± 0.032 and the surviving fraction (CANERTINIB; 5 nM) was 0.897 ± 0.054. It also gave a surviving fraction (CANERTINIB; 10 nM) of 0.775 ± 0.014, a surviving fraction (CANERTINIB; 50 nM) of 0.899 ± 0.075 and a surviving fraction (CANERTINIB; 100 nM) of 0.8 ± 0.075. The surviving fraction (CANERTINIB; 500 nM) was 0.718 ± 0.036, the surviving fraction (CANERTINIB; 1000 nM) was 0.434 ± 0.061 and the surviving fraction ([1]; 0.5 nM) was 1.03 ± 0.12. It also gave a surviving fraction ([1]; 1 nM) of 1.05 ± 0.21, a surviving fraction ([1]; 5 nM) of 1.1 ± 0.083 and a surviving fraction ([1]; 10 nM) of 1.12 ± 0.041. The surviving fraction ([1]; 50 nM) was 1.1 ± 0.14, the surviving fraction ([1]; 100 nM) was 1.1 ± 0.095 and the surviving fraction ([1]; 500 nM) was 0.902 ± 0.11. The surviving fraction ([1]; 1000 nM) was 0.86 ± 0.12.
